Measured values as given in ChEMBL document CHEMBL5523671, “ω-(5-Phenyl-2H-tetrazol-2-yl)alkyl-substituted glycine amides and related compounds as inhibitors of the amine oxidase vascular adhesion protein-1 (VAP-1)” (Bioorg Med Chem, 2024).
pIC50: −log10 of the molar value. The source made the active and inactive calls. The rule behind the calls is not given here.

Tests used:
[1] = molecular target: T1, Amine oxidase [copper-containing] 3 (Bos taurus, UniProt Q9TTK6); test: Inhibition of bovine plasma VAP-1 using 6-(5-Pheny1-2H-tetrazol-2-yl)hexan-1-amine as substrate preincubated with enzyme for 15 mins followed by substrate addition measured after 30 mins by UV-HPLC analysis; format: cell-free
T1 sequence (Q9TTK6 whole entry): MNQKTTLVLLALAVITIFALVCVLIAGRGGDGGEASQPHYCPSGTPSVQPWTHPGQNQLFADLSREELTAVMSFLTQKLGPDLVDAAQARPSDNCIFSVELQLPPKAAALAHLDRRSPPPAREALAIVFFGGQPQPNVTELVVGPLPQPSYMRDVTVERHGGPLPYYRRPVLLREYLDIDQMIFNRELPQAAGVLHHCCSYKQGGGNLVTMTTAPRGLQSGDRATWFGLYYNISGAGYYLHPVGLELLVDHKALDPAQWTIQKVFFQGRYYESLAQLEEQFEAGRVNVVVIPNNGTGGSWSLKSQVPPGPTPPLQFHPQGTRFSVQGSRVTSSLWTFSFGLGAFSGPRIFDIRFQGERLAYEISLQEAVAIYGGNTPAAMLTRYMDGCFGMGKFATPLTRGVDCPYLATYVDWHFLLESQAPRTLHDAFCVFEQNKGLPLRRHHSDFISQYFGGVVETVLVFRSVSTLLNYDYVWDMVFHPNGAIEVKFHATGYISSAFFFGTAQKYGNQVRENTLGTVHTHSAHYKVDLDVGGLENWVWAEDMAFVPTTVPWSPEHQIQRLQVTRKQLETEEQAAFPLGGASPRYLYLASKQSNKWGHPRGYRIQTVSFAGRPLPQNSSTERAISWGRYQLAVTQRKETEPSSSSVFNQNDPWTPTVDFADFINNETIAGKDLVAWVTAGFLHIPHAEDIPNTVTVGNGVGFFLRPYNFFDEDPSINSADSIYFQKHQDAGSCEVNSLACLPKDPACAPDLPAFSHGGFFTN

[2] = molecular target: T1, Amine oxidase [copper-containing] 3; test: Inhibition of bovine plasma VAP-1 using 6-(5-Pheny1-2H-tetrazol-2-yl)hexan-1-amine as substrate measured after 30 mins by UV-HPLC analysis; format: cell-free
[3] = molecular target: T2, Amine oxidase [copper-containing] 3 (Bos taurus) (UniProt Q9TTK6); test: Inhibition of bovine plasma VAP-1 using 6-(5-Pheny1-2H-tetrazol-2-yl)hexan-1-amine as substrate at 10 uM measured after 30 mins by UV-HPLC analysis relative to control; format: cell-free
T2 sequence (whole entry): T1 sequence (Q9TTK6 whole entry)

[4] = molecular target: T2, Amine oxidase [copper-containing] 3 (Bos taurus); test: Inhibition of bovine plasma VAP-1 using 6-(5-Pheny1-2H-tetrazol-2-yl)hexan-1-amine as substrate at 10 uM preincubated with enzyme for 15 mins followed by substrate addition measured after 30 mins by UV-HPLC analysis relative to control; format: cell-free; conditions: time 45.0 min
[5] = molecular target: T3, VAP-1 (amine oxidase [copper-containing] 3) (Bos taurus, UniProt Q9TTK6); test: Stability of compound assessed as bovine plasma VAP-1 mediated drug degradation by measuring parent compound remaining at 10 uM incubated for 15 mins by HPLC-MS analysis; format: ADME, cell-free; conditions: cattle, bovine plasma VAP-1 (amine oxidase [copper-containing] 3), read-out: Stability
T3 sequence (Q9TTK6 whole entry): T1 sequence (Q9TTK6 whole entry)

[6] = molecular target: T3, VAP-1 (amine oxidase [copper-containing] 3); test: Stability of compound assessed as bovine plasma VAP-1 mediated drug degradation by measuring parent compound remaining at 10 uM incubated for 30 mins by HPLC-MS analysis; format: ADME, cell-free; conditions: cattle, bovine plasma VAP-1 (amine oxidase [copper-containing] 3), read-out: Stability
[7] = molecular target: T1, Amine oxidase [copper-containing] 3; test: Stability of compound assessed as bovine plasma VAP-1 mediated drug degradation by measuring formation of aldehyde metabolite at 1 to 10 uM incubated for 60 to 120 mins by HPLC-MS analysis; format: ADME, cell-free; conditions: cattle, dose lower 1 µM, time lower 60 min, dose upper 10 µM, time upper 120 min
[8] = molecular target: T4, Amine oxidase [copper-containing] 3 (Homo sapiens, UniProt Q16853); test: Inhibition of human plasma VAP-1 using 6-(5-Pheny1-2H-tetrazol-2-yl)hexan-1-amine as substrate preincubated with enzyme for 15 mins followed by substrate addition measured after 120 mins by UV-HPLC analysis; format: cell-free
T4 sequence (Q16853 whole entry): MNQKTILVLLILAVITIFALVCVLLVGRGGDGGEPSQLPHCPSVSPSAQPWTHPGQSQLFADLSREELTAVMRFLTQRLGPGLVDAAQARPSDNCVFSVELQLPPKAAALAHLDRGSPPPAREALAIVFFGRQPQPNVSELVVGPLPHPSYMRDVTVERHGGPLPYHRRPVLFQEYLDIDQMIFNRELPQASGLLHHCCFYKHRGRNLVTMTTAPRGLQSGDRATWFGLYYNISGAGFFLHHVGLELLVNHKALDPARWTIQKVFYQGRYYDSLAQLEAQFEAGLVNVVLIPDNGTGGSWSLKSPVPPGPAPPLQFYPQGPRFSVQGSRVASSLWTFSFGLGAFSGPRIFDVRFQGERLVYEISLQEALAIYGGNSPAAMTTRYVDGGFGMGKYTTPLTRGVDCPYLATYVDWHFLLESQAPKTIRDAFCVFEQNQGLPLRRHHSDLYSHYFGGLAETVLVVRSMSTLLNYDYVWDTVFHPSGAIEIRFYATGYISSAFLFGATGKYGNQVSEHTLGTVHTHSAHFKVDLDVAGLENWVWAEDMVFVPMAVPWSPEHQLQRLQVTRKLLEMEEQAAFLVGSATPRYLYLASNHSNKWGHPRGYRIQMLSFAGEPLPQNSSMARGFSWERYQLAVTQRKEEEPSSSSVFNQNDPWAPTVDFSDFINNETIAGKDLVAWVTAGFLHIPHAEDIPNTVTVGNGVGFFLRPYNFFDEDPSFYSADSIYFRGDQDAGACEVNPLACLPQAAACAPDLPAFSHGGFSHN

[9] = Selectivity index, ratio of IC50 for human plasma VAP-1 to IC50 for bovine plasma VAP-1
[10] = molecular target: T3, VAP-1 (amine oxidase [copper-containing] 3); test: Stability of compound assessed as bovine plasma VAP-1 mediated drug degradation by measuring parent compound remaining at 10 uM incubated for 120 mins by HPLC-MS analysis; format: ADME, cell-free; conditions: cattle, bovine plasma VAP-1 (amine oxidase [copper-containing] 3), read-out: Stability
[11] = molecular target: T3, VAP-1 (amine oxidase [copper-containing] 3); test: Stability of compound assessed as bovine plasma VAP-1 mediated drug degradation by measuring parent compound remaining at 10 uM incubated for 60 mins by HPLC-MS analysis; format: ADME, cell-free; conditions: cattle, bovine plasma VAP-1 (amine oxidase [copper-containing] 3), read-out: Stability
[12] = molecular target: T3, VAP-1 (amine oxidase [copper-containing] 3); test: Stability of compound assessed as bovine plasma VAP-1 mediated drug degradation by measuring parent compound remaining at 1 uM incubated for 15 mins by HPLC-MS analysis; format: ADME, cell-free; conditions: cattle, bovine plasma VAP-1 (amine oxidase [copper-containing] 3), read-out: Stability
[13] = molecular target: T3, VAP-1 (amine oxidase [copper-containing] 3); test: Stability of compound assessed as bovine plasma VAP-1 mediated drug degradation by measuring parent compound remaining at 1 uM incubated for 30 mins by HPLC-MS analysis; format: ADME, cell-free; conditions: cattle, bovine plasma VAP-1 (amine oxidase [copper-containing] 3), read-out: Stability
[14] = molecular target: T3, VAP-1 (amine oxidase [copper-containing] 3); test: Stability of compound assessed as bovine plasma VAP-1 mediated drug degradation by measuring parent compound remaining at 1 uM incubated for 120 mins by HPLC-MS analysis; format: ADME, cell-free; conditions: cattle, bovine plasma VAP-1 (amine oxidase [copper-containing] 3), read-out: Stability
[15] = molecular target: T3, VAP-1 (amine oxidase [copper-containing] 3); test: Stability of compound assessed as bovine plasma VAP-1 mediated drug degradation by measuring parent compound remaining at 1 uM incubated for 60 mins by HPLC-MS analysis; format: ADME, cell-free; conditions: cattle, bovine plasma VAP-1 (amine oxidase [copper-containing] 3), read-out: Stability

pIC50 [1] | pIC50 [2] | inhibition [3] | inhibition [4] | Compound | other results
5.25 | 5.12 |  |  | NCC(=O)NCCCCCCn1nnc(-c2ccc(N3CCOCC3)cc2)n1 | 
5.18 | 5.24 |  |  | NCC(=O)NCCCCCCCn1nnc(-c2ccccc2)n1 | 
5.29 | 5.33 |  |  | Cc1ccc(-c2nnn(CCCCCCNC(=O)CN)n2)cc1 | 
5.27 | 5.21 |  |  | NCC(=O)NCCCCCCn1nnc(-c2ccncc2)n1 | 
< 5.00 | < 5.00 | 41% | 33% | NCC(=O)NCCCCCCn1cnc(-c2ccccc2)c1 | 
< 5.00 | < 5.00 | 42% | 37% | NCC(=O)NCCCCCCn1ccc(-c2ccccc2)n1 | 
5.35 | 5.64 |  |  | CS(=O)(=O)c1ccc(-c2nnn(CCCCCCNC(=O)CN)n2)cc1 | remaining at 0.25 h, 10 µM [5]: 82%; remaining at 0.5 h, 10 µM [6]: 63%; Stability [7]: Unstable; pIC50 [8]: 4.54; Ratio IC50 [9]: 2; remaining at 2 h, 10 µM [10]: < 5%; remaining at 1 h, 10 µM [11]: 23%
< 5.00 | < 5.00 | 30% | 18% | NCC(=O)NCc1ccccc1Cn1nnc(-c2ccccc2)n1 | remaining at 0.25 h, 10 µM [5]: 91%; remaining at 0.5 h, 10 µM [6]: 86%; remaining at 2 h, 10 µM [10]: 56%; remaining at 1 h, 10 µM [11]: 84%
7.57 | 6.00 |  |  | CC(C)(C)NC(=O)c1ccc(OC/C(=C/F)CN)cc1 | remaining at 0.25 h, 1 µM [12]: > 95%; remaining at 0.25 h, 10 µM [5]: > 95%; remaining at 0.5 h, 10 µM [6]: > 95%; remaining at 2 h, 10 µM [10]: > 95%; remaining at 1 h, 10 µM [11]: > 95%; remaining at 0.5 h, 1 µM [13]: > 95%; remaining at 2 h, 1 µM [14]: 90%; remaining at 1 h, 1 µM [15]: > 95%
< 5.00 | < 5.00 | 20% | 18% | NCC(=O)Nc1ccc(CCn2nnc(-c3ccccc3)n2)cc1 | 
< 5.00 |  | inactive | 31% | NCC(=O)NCCn1nnc(-c2ccccc2)n1 | 
< 5.00 | 5.03 |  | 45% | NCC(=O)NCCCCCn1nnc(-c2ccccc2)n1 | 
 |  | inactive | inactive | NCC(=O)NCCCCCCn1nnc(-c2ccc(C(=O)O)cc2)n1 | 
5.20 | 5.21 |  |  | COc1ccc(-c2nnn(CCCCCCNC(=O)CN)n2)cc1 | 
5.32 | 5.51 |  |  | NCC(=O)NCCCCCCCCn1nnc(-c2ccccc2)n1 | 
5.37 | 5.46 |  |  | NCC(=O)NCCCCCCn1nnc(-c2ccc(Cl)cc2)n1 | 
